This note sets out measurements from US12252493B2, “Imidazo[1,2-c]pyrimidine derivatives as PRC2 inhibitors for treating cancer” (Mirati Therapeutics, Inc., priority 2019, dated 2025).

The subject of assay [1] is Karpas 422 cells expressing mutant EZH2 (Y641N). Briefly: Karpas 422 cell viability (Cell Titre Glo) assay. The class given is cell-based, human. Conditions: Homo sapiens, CTG viability, time point (Day 4, Day 7 or Day 11) not given, read-out: IC50, Inhibiting Proliferation of Cells Expressing an Activating Mutant Form of EZH2. Summed up:
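Cells plated at 1000/well were exposed to final concentrations from 10 μM down to 1.5 nM (3-fold steps) at 37° C. Viability was read by CellTiter-Glo on day 4, 7 or 11; day-11 plates were re-fed with compound on day 7. IC50 reported per time point in binned ranges.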

Assay [2] has as its target purified human, His-tagged PRC2 complex (Homo sapiens (Human), UniProt O75530). As to the kind of experiment: Hot Spot HMT assay of PRC2 enzymatic activity (tritiated methyl transfer from SAM to core histone). The assay is classed as biochemical. To be noted: 10 nM purified PRC2 complex, 0.05 mg/ml core histone H3, 1 uM 3H-SAM, 1 hr at 30° C.; read-out: IC50, Inhibition of PRC2-mediated Enzymatic Activity. Put shortly:
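10 nM His-tagged five-subunit PRC2 complex (EZH2, EED, SUZ12, AEBP2, RbAp48) with 0.05 mg/ml core histone H3 in pH 8 Tris buffer, 1% DMSO, preincubated with compound 20 min at 30° C; reaction started with 1 uM [3H]-SAM, 1 hr at 30° C. Filter binding plus scintillation counting; IC50 from 10-point, three-fold dilutions starting at 1.0 μM.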

Assay [3] relates to PRC2-mediated histone H3 methylation (H3 Lys27 trimethylation) in Pfeiffer cells expressing mutant EZH2 (A677G). Briefly: Tri-Methyl Histone H3 (Lys 27) sandwich ELISA in Pfeiffer cells. The class given is cell-based, human. Conditions: Homo sapiens; Pfeiffer cells, 96 hours incubation, ELISA; read-out: IC50, Inhibition of EZH2-mediated Histone H3 Trimethylation. Summed up: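 Pfeiffer DLBCL cells carrying EZH2 A677G were treated for 96 h at 37 °C with 3-fold dilutions, 1 μM to 0.15 nM final. Acid-extracted histones, neutralized, went into a sandwich ELISA for H3K27me3 with HRP/TMB read-out at 450 nm. Values binned A ≤250 nM, B >250–≤500 nM, C >500 nM–≤5 μM.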
(In general: In an ELISA, binding on a coated surface is turned into a signal by an enzyme label.)

pIC50: −log10 of the molar value.

Sequence of purified human, His-tagged PRC2 complex (Q15910 whole entry): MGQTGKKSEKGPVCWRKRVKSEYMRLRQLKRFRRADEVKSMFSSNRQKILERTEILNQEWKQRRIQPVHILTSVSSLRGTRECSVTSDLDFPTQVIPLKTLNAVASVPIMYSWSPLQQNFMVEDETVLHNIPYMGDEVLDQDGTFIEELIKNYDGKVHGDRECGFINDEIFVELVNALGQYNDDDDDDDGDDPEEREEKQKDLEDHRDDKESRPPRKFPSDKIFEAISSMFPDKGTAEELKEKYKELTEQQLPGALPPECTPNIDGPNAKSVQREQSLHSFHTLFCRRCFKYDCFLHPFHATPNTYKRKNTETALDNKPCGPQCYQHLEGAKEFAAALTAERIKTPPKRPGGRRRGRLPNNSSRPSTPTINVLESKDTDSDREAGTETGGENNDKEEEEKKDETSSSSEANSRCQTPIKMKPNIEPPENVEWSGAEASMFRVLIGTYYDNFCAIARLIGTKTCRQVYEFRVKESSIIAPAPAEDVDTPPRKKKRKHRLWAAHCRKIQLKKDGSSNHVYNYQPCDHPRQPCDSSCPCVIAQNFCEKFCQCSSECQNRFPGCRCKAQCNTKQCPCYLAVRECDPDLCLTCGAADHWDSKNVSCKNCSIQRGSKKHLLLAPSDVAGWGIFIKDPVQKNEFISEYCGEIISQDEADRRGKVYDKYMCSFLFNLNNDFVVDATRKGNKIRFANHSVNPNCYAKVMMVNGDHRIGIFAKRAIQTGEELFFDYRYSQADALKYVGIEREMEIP
Sequence of purified human, His-tagged PRC2 complex (O75530 whole entry): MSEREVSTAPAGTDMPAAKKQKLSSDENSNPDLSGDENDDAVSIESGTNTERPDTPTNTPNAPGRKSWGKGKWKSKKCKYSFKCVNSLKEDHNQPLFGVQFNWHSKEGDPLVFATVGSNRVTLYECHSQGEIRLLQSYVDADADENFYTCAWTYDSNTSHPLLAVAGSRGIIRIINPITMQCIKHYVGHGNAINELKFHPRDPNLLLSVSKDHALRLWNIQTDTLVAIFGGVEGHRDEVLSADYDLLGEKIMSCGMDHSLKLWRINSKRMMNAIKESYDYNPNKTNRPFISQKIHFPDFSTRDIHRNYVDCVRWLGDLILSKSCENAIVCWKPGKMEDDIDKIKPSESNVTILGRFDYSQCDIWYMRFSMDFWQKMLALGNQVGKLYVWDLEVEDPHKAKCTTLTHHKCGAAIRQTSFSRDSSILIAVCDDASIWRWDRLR
Sequence of purified human, His-tagged PRC2 complex (Q15022 whole entry partner): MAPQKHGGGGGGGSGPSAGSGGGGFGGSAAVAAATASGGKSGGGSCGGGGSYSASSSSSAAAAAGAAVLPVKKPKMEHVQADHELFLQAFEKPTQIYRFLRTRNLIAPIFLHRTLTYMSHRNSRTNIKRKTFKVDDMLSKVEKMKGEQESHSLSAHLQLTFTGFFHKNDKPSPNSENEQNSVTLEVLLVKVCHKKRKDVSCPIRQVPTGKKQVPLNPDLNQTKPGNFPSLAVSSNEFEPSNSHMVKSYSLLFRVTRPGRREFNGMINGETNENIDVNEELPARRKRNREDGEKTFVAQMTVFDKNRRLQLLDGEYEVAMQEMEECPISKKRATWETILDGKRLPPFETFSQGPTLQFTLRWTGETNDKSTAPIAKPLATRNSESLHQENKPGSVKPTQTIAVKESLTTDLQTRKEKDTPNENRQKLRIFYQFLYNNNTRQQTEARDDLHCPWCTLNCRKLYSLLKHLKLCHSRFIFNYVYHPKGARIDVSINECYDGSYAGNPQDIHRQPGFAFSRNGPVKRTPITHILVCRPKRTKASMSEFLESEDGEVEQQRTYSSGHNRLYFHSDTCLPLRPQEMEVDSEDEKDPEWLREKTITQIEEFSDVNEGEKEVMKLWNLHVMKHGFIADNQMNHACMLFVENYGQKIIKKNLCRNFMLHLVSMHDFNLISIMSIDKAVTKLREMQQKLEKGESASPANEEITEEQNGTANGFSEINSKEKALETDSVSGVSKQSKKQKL
Sequence of purified human, His-tagged PRC2 complex (Q6ZN18 whole entry partner): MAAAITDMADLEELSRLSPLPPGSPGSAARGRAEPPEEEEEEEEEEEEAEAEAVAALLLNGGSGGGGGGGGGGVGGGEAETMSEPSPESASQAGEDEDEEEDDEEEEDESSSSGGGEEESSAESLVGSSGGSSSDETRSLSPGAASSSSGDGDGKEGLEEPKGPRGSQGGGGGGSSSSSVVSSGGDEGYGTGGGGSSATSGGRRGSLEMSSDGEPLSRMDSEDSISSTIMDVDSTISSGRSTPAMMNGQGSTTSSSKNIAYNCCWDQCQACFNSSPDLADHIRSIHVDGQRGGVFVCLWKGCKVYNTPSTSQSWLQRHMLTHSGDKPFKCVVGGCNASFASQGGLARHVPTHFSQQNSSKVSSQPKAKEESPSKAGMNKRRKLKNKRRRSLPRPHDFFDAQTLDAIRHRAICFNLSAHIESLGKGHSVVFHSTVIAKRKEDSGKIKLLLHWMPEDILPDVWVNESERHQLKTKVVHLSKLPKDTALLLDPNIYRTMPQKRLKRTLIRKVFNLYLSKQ
Sequence of purified human, His-tagged PRC2 complex (Q09028 whole entry partner): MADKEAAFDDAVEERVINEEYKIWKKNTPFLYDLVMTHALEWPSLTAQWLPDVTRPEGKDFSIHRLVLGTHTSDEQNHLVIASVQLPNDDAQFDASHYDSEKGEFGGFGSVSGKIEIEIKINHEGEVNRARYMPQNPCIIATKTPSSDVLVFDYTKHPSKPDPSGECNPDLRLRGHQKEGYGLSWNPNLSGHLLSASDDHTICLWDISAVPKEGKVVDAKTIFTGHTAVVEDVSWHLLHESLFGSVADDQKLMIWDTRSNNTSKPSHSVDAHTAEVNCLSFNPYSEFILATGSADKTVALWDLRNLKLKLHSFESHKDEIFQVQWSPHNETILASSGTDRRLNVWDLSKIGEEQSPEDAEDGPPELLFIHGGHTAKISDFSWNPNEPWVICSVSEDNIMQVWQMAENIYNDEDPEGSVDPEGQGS

As to `Cc1cc(-c2cnc(NCc3c(F)ccc4c3CCO4)n3cc(CNC4CC4)nc23)n(C)n1` [Example 33, 2-((cyclopropylamino)methyl)-8-(1,3-dimethyl-1H-pyrazol-5-yl)-N-((5-fluoro-2,3-dihydrobenzofuran-4-yl)methyl)imidazo[1,2-c]pyrimidin-5-amine], the pIC50 in assay [1] was 6.30 to 6.60; in assay [2], 5.70 to 6.30; in assay [3], 6.30 to 6.60.

As to `Cc1cc(S(C)(=O)=O)ccc1-c1cnc(NCc2c(F)ccc3c2CCO3)n2cc(C(C)N)nc12` (stereo not drawn) [Example 34, 2-(1-aminoethyl)-N-((5-fluoro-2,3-dihydrobenzofuran-4-yl)methyl)-8-(2-methyl-4-(methylsulfonyl)phenyl)imidazo[1,2-c]pyrimidin-5-amine], the pIC50 in assay [1], in assay [2] and in assay [3] was above 6.60 throughout.

`Cc1cc(C(=O)N(C)C)ncc1-c1cnc(NCc2c(F)ccc3c2CCO3)n2cc(C(C)N)nc12` (stereo not drawn) [Example 35, 5-(2-(1-aminoethyl)-5-(((5-fluoro-2,3-dihydrobenzofuran-4-yl)methyl)amino)imidazo[1,2-c]pyrimidin-8-yl)-N,N,4-trimethylpicolinamide]: the pIC50 in assay [1], in assay [2] and in assay [3] was above 6.60 throughout.

Consider `CC(N)c1cn2c(NCc3c(F)ccc4c3CCO4)ncc(-c3cc(C(F)(F)F)nn3C)c2n1` (stereo not drawn) [Example 36, 2-(1-aminoethyl)-N-((5-fluoro-2,3-dihydrobenzofuran-4-yl)methyl)-8-(1-methyl-3-(trifluoromethyl)-1H-pyrazol-5-yl)imidazo[1,2-c]pyrimidin-5-amine], for which the pIC50 in assay [1], in assay [2] and in assay [3] was above 6.60 in each case.

As to `Cc1cc(CN(C)C)ccc1-c1cnc(NCc2c(F)ccc3c2CCO3)n2cc(C(C)N)nc12` (stereo not drawn) [Example 37, 2-(1-aminoethyl)-8-(4-((dimethylamino)methyl)-2-methylphenyl)-N-((5-fluoro-2,3-dihydrobenzofuran-4-yl)methyl)imidazo[1,2-c]pyrimidin-5-amine], the pIC50 in assay [1], in assay [2] and in assay [3] was above 6.60 each time.

Turning to `Cc1cc(-c2cnc(NCc3c(F)ccc4c3CCO4)n3cc(C(C)N)nc23)ccn1` (stereo not drawn) [Example 38, 2-(1-aminoethyl)-N-((5-fluoro-2,3-dihydrobenzofuran-4-yl)methyl)-8-(2-methylpyridin-4-yl)imidazo[1,2-c]pyrimidin-5-amine], the pIC50 in assay [1], in assay [2] and in assay [3] was above 6.60 throughout.

For `Cc1ncccc1-c1cnc(NCc2c(F)ccc3c2CCO3)n2cc(C(C)N)nc12` (stereo not drawn) [Example 39, 2-(1-aminoethyl)-N-((5-fluoro-2,3-dihydrobenzofuran-4-yl)methyl)-8-(2-methylpyridin-3-yl)imidazo[1,2-c]pyrimidin-5-amine], the pIC50 in assay [1], in assay [2] and in assay [3] was above 6.60 in each case.

Turning to `CC(N)c1cn2c(NCc3c(F)ccc4c3CCO4)ncc(-c3cc(C#N)nn3C)c2n1` (stereo not drawn) [Example 40, 5-(2-(1-aminoethyl)-5-(((5-fluoro-2,3-dihydrobenzofuran-4-yl)methyl)amino)imidazo[1,2-c]pyrimidin-8-yl)-1-methyl-1H-pyrazole-3-carbonitrile], the pIC50 in assay [1], in assay [2] and in assay [3] was above 6.60 each time.

Take `Cc1cc(-c2cnc(NCc3c(F)ccc4c3CCO4)n3cc(C(N)C4CC4)nc23)n(C)n1` (stereo not drawn) [Example 41, 2-(amino(cyclopropyl)methyl)-8-(1,3-dimethyl-1H-pyrazol-5-yl)-N-((5-fluoro-2,3-dihydrobenzofuran-4-yl)methyl)imidazo[1,2-c]pyrimidin-5-amine]: the pIC50 in assay [1], in assay [2] and in assay [3] was above 6.60 in each case.

For `Cc1cc(-c2cnc(NCc3c(F)ccc4c3CCO4)n3cc(-c4nnco4)nc23)n(C)n1` [Example 44, 8-(1,3-dimethyl-1H-pyrazol-5-yl)-N-((5-fluoro-2,3-dihydrobenzofuran-4-yl)methyl)-2-(1,3,4-oxadiazol-2-yl)imidazo[1,2-c]pyrimidin-5-amine], the pIC50 in assay [1], in assay [2] and in assay [3] was above 6.60 in each case.

For the compound `Cc1cc(-c2cnc(NCc3c(F)ccc4c3CCO4)n3cc(-c4cnco4)nc23)n(C)n1` [Example 45, 8-(1,3-dimethyl-1H-pyrazol-5-yl)-N-((5-fluoro-2,3-dihydrobenzofuran-4-yl)methyl)-2-(oxazol-5-yl)imidazo[1,2-c]pyrimidin-5-amine], the figures for the pIC50 in assay [1], in assay [2] and in assay [3] were above 6.60, above 6.60 and 6.30 to 6.60, respectively.
